Assay [1] deals with T1, P2X purinoceptor 3 (Rattus norvegicus, UniProt P49654).
T1 sequence (P49654 whole entry): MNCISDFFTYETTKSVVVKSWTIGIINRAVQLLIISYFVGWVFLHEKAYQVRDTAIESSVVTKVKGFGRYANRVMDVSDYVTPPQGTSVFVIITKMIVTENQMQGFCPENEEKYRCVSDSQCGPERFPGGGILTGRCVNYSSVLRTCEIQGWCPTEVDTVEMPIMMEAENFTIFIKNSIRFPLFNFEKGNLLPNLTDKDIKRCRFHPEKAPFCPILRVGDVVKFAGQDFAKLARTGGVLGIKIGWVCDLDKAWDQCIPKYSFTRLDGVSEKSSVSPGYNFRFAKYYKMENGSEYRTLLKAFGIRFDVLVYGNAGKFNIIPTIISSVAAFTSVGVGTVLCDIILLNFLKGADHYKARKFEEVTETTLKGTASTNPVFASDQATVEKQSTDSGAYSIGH
In words: Compound was tested in a functional ion channel assay of ATP-induced current at recombinant rat P2X3 receptor expressed in Xenopus oocytes. Type of assay: cell-based, Oocyte.

Assay [2] has as its target T2, P2X purinoceptor 1 (Rattus norvegicus, UniProt P47824).
T2 sequence (P47824 whole entry): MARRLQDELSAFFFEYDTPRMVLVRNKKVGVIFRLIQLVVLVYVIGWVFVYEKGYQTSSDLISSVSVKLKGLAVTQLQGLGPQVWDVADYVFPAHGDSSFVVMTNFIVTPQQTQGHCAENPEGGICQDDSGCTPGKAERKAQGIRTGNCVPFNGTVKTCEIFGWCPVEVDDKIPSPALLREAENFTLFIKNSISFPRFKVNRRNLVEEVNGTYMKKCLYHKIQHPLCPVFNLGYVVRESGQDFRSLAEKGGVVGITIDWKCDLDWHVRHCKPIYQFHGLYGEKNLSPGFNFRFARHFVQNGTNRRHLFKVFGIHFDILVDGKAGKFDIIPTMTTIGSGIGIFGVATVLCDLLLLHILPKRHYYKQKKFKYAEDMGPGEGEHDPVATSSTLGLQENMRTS
Description: Compound was tested in a functional ion channel assay of ATP-induced current at recombinant rat P2X1 receptor expressed in Xenopus oocytes. Type of assay: cell-based, Oocyte.

On to `Cc1nc(/N=N/c2ccc(S(=O)(=O)O)cc2S(=O)(=O)O)c(COP(=O)(O)O)c(C=O)c1O`, for which the IC50 in assay [1] was 0.24 µM; in assay [2], 0.0985 µM. Regarding `Cc1nc(/N=N/c2cc(S(=O)(=O)O)ccc2S(=O)(=O)O)c(COP(=O)(O)O)c(C=O)c1O` [ISOPPADS], the half-maximal inhibitory concentration (IC50) in assay [2] worked out at 0.0425 µM. Take `Cc1nc(/N=N/c2cc(S(=O)(=O)O)ccc2S(=O)(=O)O)c2c(c1O)COP(=O)(O)OC2`: the values for the IC50 in assay [1] and in assay [2] were 58.3 µM and 10.2 µM, respectively.

On to `Cc1ncc2c(c1O)COP(=O)(O)OC2`, for which the EC50 in assay [2] was 5.9 µM.

Source of the values: ChEMBL document CHEMBL1131253, “A pyridoxine cyclic phosphate and its 6-azoaryl derivative selectively potentiate and antagonize activation of P2X1 receptors” (J Med Chem, 1998).
